# Literature values in patent US20100113583A1, “COMBINATION THERAPIES FOR THE TREATMENT OF OBESITY” (priority 2008, published 2010).
# How the values were obtained:
# [1] = for weight loss of body weight for drug compared with placebo: literature studies
Compound,weight loss of body weight for drug compared with placebo [1],clinically significant side effect / limitation of clinical use,efficacy in clinical use ([1]; clinical use as weight loss drug)
CCN[C@@H](C)Cc1cccc(C(F)(F)F)c1 [dexfenfluramine],about 5%,suspected heart valvulopathy,
CCNC(C)Cc1cccc(C(F)(F)F)c1 (stereo not drawn) [fenfluramine],,caused heart-valve complications,
CCCCCCCCCCC[C@@H](C[C@@H]1OC(=O)[C@H]1CCCCCC)OC(=O)[C@H](CC(C)C)NC=O [orlistat],about 5%,GI side effects,
CC(C)(N)Cc1ccccc1 [phentermine],about 5%,,limited efficacy
CC(C)CC(N(C)C)C1(c2ccc(Cl)cc2)CCC1 (stereo not drawn) [sibutramine],about 5%,can cause hypertension,
